Source: publication PMC11578313, “Miniaturized Modular Click Chemistry‐enabled Rapid Discovery of Unique SARS‐CoV‐2 M^pro Inhibitors With Robust Potency and Drug‐like Profile” (Advanced Science, 2024)
Values joined by “and” are separate entries in the source; they are usually repeats but may differ in a detail not shown here. Equal entries are not always repeated. Where two headings read alike, the source gives them in different places.

Assay: In vivo pharmacokinetic study in male ICR mice (compound alone)
Settings: for C0: read-out: C0
Protocol: The pharmacokinetics profile of the newly developed antiviral compound C5N17B was subsequently evaluated in male ICR mice that were free from specific pathogens, aiming to assess its potential for therapeutic application in vivo.
A total of six male ICR mice were randomly assigned to two groups. One group received the test drug intravenously at a dosage of 2 mg kg^−1, while the other group received oral administration at a dosage of 10 mg kg^−1. To prepare solutions of C5N17B, 2.39 mg compound was dissolved in a mixture of 0.119 mL DMSO, 0.238 mL polyoxyl 15 hydroxystearate (Solutol), and 2.027 mL normal saline. For the intravenous group, blood samples were collected from the sinus jugular into heparinized centrifugation tubes at various time points after dosing: 5, 15, 30 min, 1, 2, 4, 6, 8, and 24 h. As for the oral administration group, blood samples were collected at similar time points (0.05 mL of blood each time). The collected blood samples were then centrifuged at a speed of 4000 rpm for 10 min to separate plasma, which was subsequently stored at −20 °C until further LC‐MS analysis to determine the concentration of C5N17B. Briefly, the analysis involved adding 20 µL of plasma, sample calibration standard, quality control, and dilution quality control, and blank samples into respective wells on a 96‐well plate. Then each sample was quenched with 200 µL of internal standard (the blank sample was quenched with 200 µL of ACN: MeOH = 1:1), followed by vortex‐mixed for 5 min, and centrifuged for 0.5 min at 4000 rpm, 4 °C. Next, a 100 µL portion of supernatant was transferred to another clean 96‐well plate and diluted with 100 µL of water, vortex‐mixed for 5 min and centrifuged for 10 min at 4000 rpm, 4 °C, then the sample was injected for LC‐MS/MS analysis. All samples were quantified using an LC‐MS/MS‐AR Triple Quad 5500+ (SCIEX, USA) and the ExionLC liquid phase system. The mobile phase was 0.1% formic acid‐water/ACN with gradient elute at a flow rate of 0.8 mL mi^−1n (total time 2.20 min), and the detection wavelength was 225 nm. All blood samples were centrifuged using an Eppendorf 5424R centrifuge and quantified using an LC‐MS/MS‐AR Triple Quad 5500+ (SCIEX, USA). The pharmacokinetic parameters were calculated by WinNolin 8.2 software.

[1] = PO 10 mg/kg, individual mice 4-6, 10 mg/kg
[2] = i.v. 2 mg kg^−1, male ICR mice, n = 3

Q: What does the source list for `Cc1cncc(C(=O)N2C[C@H]3CC[C@@H](C2)N3[C@H](c2cccc(F)c2)c2cn(CCc3ccsc3)nn2)c1` [Compound C5N17B]?
A: MRTINF_pred [1]: 295 min and 184.93 min and 381.5 min; MRTlast [1]: 113.8 min and 110 min; Tlast [1]: 4 h and 6 h; Vz_F_obs [1]: 837.29 L/kg and 630.24 L/kg and 684.762 L/kg; Vz_F_pred [1]: 906.828 L/kg and 630.882 L/kg and 737.02 L/kg; F, Mean (PO 10 mg/kg, mean of mice 4#-6#): 13.0%; C0, i.v. [2]: 514 ± 164.7 ng/mL; t1/2, i.v. [2]: 6.36 ± 0.341 min; concentration at 5 min (male, ICR, mouse, plasma, iv, 2 mg/kg, IV 2 mg/kg, 5 min (5 min), mouse plasma, individual mice 1#-3#, read-out: Plasma concentration (Calculated Concentration)): 292 ng/mL; concentration at 5 min (male, ICR, mouse, plasma, iv, 2 mg/kg, IV 2 mg/kg, 5 min, individual mice, read-out: plasma concentration): 233 ng/mL; concentration at 5 min (male, ICR, mouse, plasma, iv, 2 mg/kg, IV 2 mg/kg, 5 min, mean of mice 1#-3#, read-out: Plasma concentration, Mean): 237 ng/mL; concentration at 0.5 h (male, ICR, mouse, plasma, iv, 2 mg/kg, IV 2 mg/kg, 0.5 h (30 min), mouse plasma, individual mice 1#-3#, read-out: Plasma concentration (Calculated Concentration)): 18.4 ng/mL; concentration at 0.5 h (male, ICR, mouse, plasma, iv, 2 mg/kg, IV 2 mg/kg, 0.5 h, individual mice, read-out: plasma concentration): 16.1 ng/mL; concentration at 0.5 h (male, ICR, mouse, plasma, iv, 2 mg/kg, IV 2 mg/kg, 0.50 h, mean of mice 1#-3#, read-out: Plasma concentration, Mean): 14.9 ng/mL; concentration at […] (male, ICR, mouse, plasma, iv, 2 mg/kg, IV 2 mg/kg, […] (15 min), mouse plasma, individual mice 1#-3#, read-out: Plasma concentration (Calculated Concentration)): 55.3 ng/mL; AUC(0-t) (male, ICR, mouse, plasma, iv, 2 mg/kg, IV 2 mg/kg, individual mice 1#-3#, read-out: AUC0-t): 78.3 ng·h/mL; AUC(0-inf) (male, ICR, mouse, plasma, iv, 2 mg/kg, IV 2 mg/kg, individual mice 1#-3#, read-out: AUC0-∞): 81.1 ng·h/mL; C0 (male, ICR, mouse, plasma, iv, 2 mg/kg, IV 2 mg/kg, individual mice 1#-3#): 671 ng/mL; clearance (male, ICR, mouse, plasma, iv, 2 mg/kg, IV 2 mg/kg, individual mice 1#-3#, read-out: Cl (converted)): 411 mL/min/kg; Cmax (male, ICR, mouse, plasma, iv, 2 mg/kg, IV 2 mg/kg, individual mice 1#-3#, read-out: Cmax): 292 ng/mL; MRT last (male, ICR, mouse, plasma, iv, 2 mg/kg, IV 2 mg/kg, individual mice 1#-3#, read-out: MRT0-t): 5.42 min; MRT inf (male, ICR, mouse, plasma, iv, 2 mg/kg, IV 2 mg/kg, individual mice 1#-3#, read-out: MRT0-∞): 6.6 min; half-life (male, ICR, mouse, plasma, iv, 2 mg/kg, IV 2 mg/kg, individual mice 1#-3#, read-out: T1/2 (converted)): 6.42 min; Tmax (male, ICR, mouse, plasma, iv, 2 mg/kg, IV 2 mg/kg, individual mice 1#-3#, read-out: Tmax): 5 min; Vd (male, ICR, mouse, plasma, iv, 2 mg/kg, IV 2 mg/kg, individual mice 1#-3#, read-out: Vz): 3.82 L/kg; AUC(0-inf) (male, ICR, mouse, plasma, iv, 2 mg/kg, IV 2 mg/kg, individual mice 1-3, read-out: AUCINF_obs): 81.1 ng·h/mL; AUC(0-inf) (male, ICR, mouse, plasma, iv, 2 mg/kg, IV 2 mg/kg, individual mice 1-3, read-out: AUCINF_pred): 80.7 ng·h/mL; AUC (male, ICR, mouse, plasma, iv, 2 mg/kg, IV 2 mg/kg, individual mice 1-3, read-out: AUCall): 78.3 ng·h/mL; AUC(0-t) (male, ICR, mouse, plasma, iv, 2 mg/kg, IV 2 mg/kg, individual mice 1-3, read-out: AUClast): 78.3 ng·h/mL; C0 (male, ICR, mouse, plasma, iv, 2 mg/kg, IV 2 mg/kg, individual mice 1-3): 671 ng/mL; clearance (male, ICR, mouse, plasma, iv, 2 mg/kg, IV 2 mg/kg, individual mice 1-3, read-out: Cl_obs (converted)): 411 mL/min/kg; concentration at 0.5 h (male, ICR, mouse, plasma, iv, 2 mg/kg, IV 2 mg/kg, individual mice 1-3, read-out: Clast): 18.4 ng/mL; Cmax (male, ICR, mouse, plasma, iv, 2 mg/kg, IV 2 mg/kg, individual mice 1-3, read-out: Cmax): 292 ng/mL; k el (male, ICR, mouse, plasma, iv, 2 mg/kg, IV 2 mg/kg, individual mice 1-3, read-out: Lambda_z (converted)): 0.00179 s⁻¹; MRT inf (male, ICR, mouse, plasma, iv, 2 mg/kg, IV 2 mg/kg, individual mice 1-3, read-out: MRTINF_obs): 6.61 min; MRT inf (male, ICR, mouse, plasma, iv, 2 mg/kg, IV 2 mg/kg, individual mice 1-3, read-out: MRTINF_pred): 6.45 min; MRT last (male, ICR, mouse, plasma, iv, 2 mg/kg, IV 2 mg/kg, individual mice 1-3, read-out: MRTlast): 5.42 min; Tmax (male, ICR, mouse, plasma, iv, 2 mg/kg, IV 2 mg/kg, individual mice 1-3, read-out: Tmax): 5 min; AUC(0-t) (male, ICR, mouse, plasma, iv, 2 mg/kg, IV 2 mg/kg, mean of mice 1#-3#, read-out: AUC0-t, Mean): 63.6 ng·h/mL; AUC(0-inf) (male, ICR, mouse, plasma, iv, 2 mg/kg, IV 2 mg/kg, mean of mice 1#-3#, read-out: AUC0-∞, Mean): 65.9 ng·h/mL; clearance (male, ICR, mouse, plasma, iv, 2 mg/kg, IV 2 mg/kg, mean of mice 1#-3#, read-out: Cl, Mean (converted)): 524 mL/min/kg; Cmax (male, ICR, mouse, plasma, iv, 2 mg/kg, IV 2 mg/kg, mean of mice 1#-3#, read-out: Cmax, Mean): 237 ng/mL; MRT last (male, ICR, mouse, plasma, iv, 2 mg/kg, IV 2 mg/kg, mean of mice 1#-3#, read-out: MRT0-t, Mean): 5.81 min; MRT inf (male, ICR, mouse, plasma, iv, 2 mg/kg, IV 2 mg/kg, mean of mice 1#-3#, read-out: MRT0-∞, Mean): 6.96 min; half-life (male, ICR, mouse, plasma, iv, 2 mg/kg, IV 2 mg/kg, mean of mice 1#-3#, read-out: T1/2, Mean (converted)): 6.36 min; Tmax (male, ICR, mouse, plasma, iv, 2 mg/kg, IV 2 mg/kg, mean of mice 1#-3#, read-out: Tmax, Mean): 5 min; Vd (male, ICR, mouse, plasma, iv, 2 mg/kg, IV 2 mg/kg, mean of mice 1#-3#, read-out: Vz, Mean): 4.79 L/kg; AUC (male, ICR, mouse, plasma, iv, 2 mg/kg, i.v. 2 mg kg^−1, male ICR mice, n = 3, read-out: AUC0‐t, i.v.): 63.6 ± 14.2 ng·h/mL
